# Reference: patent US20020099073A1, “Modulators of protein tyrosine phosphatases (PTPases)” (priority 2000, published 2002)
# Molecular target: T1, truncated form of PTP1B (corresponding to the first 321 amino acids) (Homo sapiens, UniProt P18031)
# T1 construct: truncated form of PTP1B (corresponding to the first 321 amino acids); made in house; host or cells: E. coli
# T1 sequence (P18031 1-321): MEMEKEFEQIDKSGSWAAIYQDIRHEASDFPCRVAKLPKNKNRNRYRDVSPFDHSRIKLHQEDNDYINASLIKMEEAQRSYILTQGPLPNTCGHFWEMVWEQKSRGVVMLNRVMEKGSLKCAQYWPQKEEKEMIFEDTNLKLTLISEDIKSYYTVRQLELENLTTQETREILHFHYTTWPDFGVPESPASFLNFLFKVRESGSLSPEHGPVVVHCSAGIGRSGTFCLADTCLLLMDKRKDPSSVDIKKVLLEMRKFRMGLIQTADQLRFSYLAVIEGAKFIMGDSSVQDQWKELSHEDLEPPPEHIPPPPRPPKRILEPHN
# Assay: Inhibition of PTP1B, p-nitrophenyl phosphate substrate
# Assay type: biochemical
# Conditions: substrate p-nitrophenyl phosphate 0.16 to 10 mM; 100 mM sodium acetate pH 5.5; 25° C. for 60 minutes; absorbance at 405 nm
# Procedure: The compounds are evaluated for biological activity with a truncated form of PTP1B (corresponding to the first 321 amino acids), which was expressed in E. coli and purified to apparent homogeneity using published procedures well-known to those skilled in the art. The enzyme reactions are carried out using standard conditions essentially as described by Burke et al. (Biochemistry 35; 15989-15996 (1996)). The assay conditions are as follows. Appropriate concentrations of the compounds of the invention are added to the reaction mixtures containing different concentrations of the substrate, p-nitrophenyl phosphate (range: 0.16 to 10 mM—final assay concentration). The buffer used was 100 mM sodium acetate pH 5.5, 50 mM sodium chloride, 0.1% (w/v) bovine serum albumin and 5 mM dithiothreitol (total volume […]). The reaction was started by addition of the enzyme and carried out in microtiter plates at 25° C. for 60 minutes. The reactions are stopped by addition of NaOH. The enzyme activity was determined by measurement of the absorbance at 405 nm with appropriate corrections for absorbance at 405 nm of the compounds and p-nitrophenyl phosphate. The data are analyzed using nonlinear regression fit to classical Michaelis Menten enzyme kinetic models. Inhibition is expressed as Ki values in μM.
row,Compound,Ki
1,"5-(Benzyloxycarbonylamino-methyl)-2-(oxalyl-amino)-4,5,6,7-tetrahydro-thieno[2,3-c]pyridine-3-carboxylic acid and 7-(benzyloxycarbonylamino-methyl)-2-(oxalyl-amino)-4,5,6,7-tetrahydro-thieno[2,3-c]pyridine-3-carboxylic Acid [Example 17]",1500 nM
2,"O=C(O)C(=O)Nc1sc2c(c1C(=O)O)CC(CNC(=O)c1ccccc1)NC2 (centres unmarked) [Example 1, 5-(Benzoylamino-methyl)-2-(oxalyl-amino)-4,5,6,7-tetrahydro-thieno[2,3-c]Pyridine-3-carboxylic Acid]",520 nM
3,"COc1ccc(CN2Cc3sc(NC(=O)C(=O)O)c(C(=O)O)c3CC2CNC(=O)c2cc(-c3ccc(C)cc3)nc3ccc(Br)cc23)cc1 (centres unmarked) [Example 2, 5-(((6-Bromo-2-p-tolyl-quinoline-4-carbonyl)amino)methyl)-6-(4-methoxy-benzyl)-2-(oxalyl-amino)-4,5,6,7-tetrahydro-thieno[2,3-c]pyridine-3-carboxylic Acid]",100000 nM
4,"COc1ccc(CN2Cc3sc(NC(=O)C(=O)O)c(C(=O)O)c3CC2CNC(=O)c2cc3cc(OCc4ccccc4)ccc3[nH]2)cc1 (centres unmarked) [Example 3, 5-(((5-Benzyloxy-1H-indole-2-carbonyl)amino)methyl)-6-(4-methoxy-benzyl)-2-(oxalyl-amino)-4,5,6,7-tetrahydro-thieno[2,3-c]pyridine-3-carboxylic Acid]",4300 nM
5,COc1ccc(CN2Cc3sc(NC(=O)C(=O)O)c(C(=O)O)c3CC2CNC(=O)c2ccc(NC(=O)c3ccccc3)cc2)cc1 (centres unmarked) [Example 4],3000 nM
6,"O=C(O)C(=O)Nc1sc2c(c1C(=O)O)CC(CNC(=O)c1ccc(NC(=O)c3ccccc3)cc1)NC2 (centres unmarked) [Example 5, 5-((4-Benzoylamino-benzoylamino)methyl)-2-(oxalyl-amino)-4,5,6,7-tetrahydro-thieno[2,3-c]pyridine-3-carboxylic Acid]",250 nM
7,"COc1ccc(CN2Cc3sc(NC(=O)C(=O)O)c(C(=O)O)c3CC2CNC(=O)c2nn(-c3ccccc3)nc2C)cc1 (centres unmarked) [Example 6, 6-(4-Methoxy-benzyl)-5-(((5-methyl-2-phenyl-2H-[1,2,3]triazole-4-carbonyl)-amino)methyl)-2-(oxalyl-amino)-4,5,6,7-tetrahydro-thieno[2,3-c]pyridine-3-carboxylic Acid]",20000 nM
8,"O=C(O)C(=O)Nc1sc2c(c1C(=O)O)CC(CNC(=O)c1ccc(-c3ccccc3)cc1)NC2 (centres unmarked) [Example 9, 5-(((Biphenyl-4-carbonyl)amino)methyl)-2-(oxalyl-amino)-4,5,6,7-tetrahydro-thieno[2,3-c]pyridine-3-carboxylic Acid]",220 nM
9,"CCOc1ccc(C(=O)NCC2Cc3c(sc(NC(=O)C(=O)O)c3C(=O)O)CN2)c(O)c1 (centres unmarked) [Example 10, 5-((4-Ethoxy-2-hydroxy-benzoylamino)methyl)-2-(oxalyl-amino)-4,5,6,7-tetrahydro-thieno[2,3-c]pyridine-3-carboxylic Acid]",340 nM
10,"Cc1nn(-c2ccccc2)nc1C(=O)NCC1Cc2c(sc(NC(=O)C(=O)O)c2C(=O)O)CN1 (centres unmarked) [Example 11, 5-(((5-Methyl-2-phenyl-2H-[1,2,3]triazole-4-carbonyl)amino]methyl)-2-(oxalyl-amino)-4,5,6,7-tetrahydro-thieno[2,3-c]pyridin-3-carboxylic Acid]",1500 nM
11,O=C(O)C(=O)Nc1sc2c(c1C(=O)O)CC(CNC(=O)c1cc3ccccc3[nH]1)NC2 (centres unmarked) [Example 14],670 nM
12,"COc1ccc(CN2Cc3sc(NC(=O)C(=O)O)c(C(=O)O)c3CC2CNC(=O)c2cccc3ccccc23)cc1 (centres unmarked) [Example 16, 6-(4-Methoxybenzyl)-5-(((naphthalene-1-carbonyl)amino)methyl)-2-(oxalyl-amino)-4,5,6,7-tetrahydro-thieno[2,3-c]pyridine-3-carboxylic Acid]",20000 nM
13,"O=C(O)C(=O)Nc1sc2c(c1C(=O)O)CC(CNC(=O)c1ccccc1O)NC2 (centres unmarked) [Example 18, 5-((2-Hydroxy-benzoylamino)-methyl)-2-(oxalyl-amino)-4,5,6,7-tetrahydro-thieno[2,3-c]pyridine-3-carboxylic Acid]",680 nM
14,"O=C(O)C(=O)Nc1sc2c(c1C(=O)O)CC(CNC(=O)c1cccc(O)c1)NC2 (centres unmarked) [Example 19, 5-((3-Hydroxy-benzoylamino)methyl)-2-(oxalyl-amino)-4,5,6,7-tetrahydro-thieno[2,3-c]Pyridine-3-carboxylic Acid]",950 nM
15,"O=C(O)C(=O)Nc1sc2c(c1C(=O)O)C[C@@H](CNC(=O)c1cccc(Oc3ccccc3)c1)NC2 [Example 20, 2-(Oxalyl-amino)-5-(S)-((3-phenoxy-benzoylamino)methyl)-4,5,6,7-tetrahydro-thieno[2,3-c]pyridine-3-carboxylic Acid]",270 nM
16,"O=C(O)C(=O)Nc1sc2c(c1C(=O)O)C[C@@H](CNC(=O)c1ccc(NC(=O)c3ccccc3)cc1)NC2 [Example 21, 5-((4-Benzoylamino-benzoylamino)methyl)-2-(oxalyl-amino)-4,5,6,7-tetrahydro-thieno[2,3-c]pyridine-3-carboxylic Acid]",160 nM
17,"O=C(O)C(=O)Nc1sc2c(c1C(=O)O)C[C@H](CNC(=O)c1ccc(NC(=O)c3ccccc3)cc1)NC2 [Example 22, 5-(R)-((4-Benzoylamino-benzoylamino)methyl)-2-(oxalyl-amino)-4,5,6,7-tetrahydro-thieno[2,3-c]pyridine-3-carboxylic Acid]",3200 nM
18,"O=C(O)C(=O)Nc1sc2c(c1C(=O)O)C[C@@H](CNC(=O)c1ccc3ccccc3c1O)NC2 [Example 23, 5-(S)-(((1-Hydroxy-naphthalene-2-carbonyl)amino)methyl)-2-(oxalyl-amino)-4,5,6,7-tetrahydro-thieno[2,3-c]pyridine-3-carboxylic Acid]",150 nM
19,"O=C(O)C(=O)Nc1sc2c(c1C(=O)O)C[C@@H](CNC(=O)c1cc3ccccc3cc1O)NC2 [Example 24, 5-(S)-(((3-Hydroxy-naphthalene-2-carbonyl)amino)methyl)-2-(oxalyl-amino) 4,5,6,7-tetrahydro-thieno[2,3-c]pyridine-3-carboxylic Acid]",220 nM
20,"COc1ccc2cc(O)c(C(=O)NC[C@@H]3Cc4c(sc(NC(=O)C(=O)O)c4C(=O)O)CN3)cc2c1 [Example 25, 5-(S)-(((3-Hydroxy-7-methoxy-naphthalene-2-carbonyl)amino)methyl)-2-(oxalyl-amino)-4,5,6,7-tetrahydro-thieno[2,3-c]pyridine-3-carboxylic Acid]",210 nM
21,"O=C(NC[C@@H]1Cc2c(sc(NC(=O)C(=O)O)c2C(=O)O)CN1)Nc1ccc(Oc2ccccc2)cc1 [Example 27, 2-(Oxalyl-amino)-5-(S)-(3-(4-phenoxy-phenyl)ureidomethyl)-4,5,6,7-tetrahydro-thieno[2,3-c]pyridin-3-carboxylic Acid]",200 nM
22,"CC(=O)Nc1ccc(S(=O)(=O)NC[C@H]2Cc3c(sc(NC(=O)C(=O)O)c3C(=O)O)CN2)cc1 [Example 28, 5-(R)-((4-Acetylamino-benzenesulfonylamino)methyl)-2-(oxalyl-amino)-4,5,6,7-tetrahydro-thieno[2,3-c]pyridine-3-carboxylic Acid]",3500 nM
23,"CC(=O)Nc1ccc(S(=O)(=O)NC[C@@H]2Cc3c(sc(NC(=O)C(=O)O)c3C(=O)O)CN2)cc1 [Example 29, 5-(S)-((4-Acetylamino-benzenesulfonylamino)methyl)-2-(oxalyl-amino)-4,5,6,7-tetrahydro-thieno[2,3-c]pyridine-3-carboxylic Acid]",130 nM
